Assay results taken from publication PMC2889835 (PLoS ONE, 2010).
Entries after “also recorded” stand apart in the source; their conditions may differ. Where two headings read alike, the source gives them in different places. Starred links: 1 amine or outer side, 2 acyl side, 3 side chain; linkers in the order of their positions; H or OH if unused. Positions of bridges follow the written chain, without caps; N, C: chain ends. Non-standard residues stand in square brackets, D forms with d. Residues, ends and D or L forms follow the SMILES beside them. Chains are numbered I, II in the order given. Actinocin(9to1) = Cc1c2oc3c(C)ccc(C(=O)[*:1])c3nc-2c(C(=O)[*:2])c(N)c1=O; NMeV = CN[C@H](C(=O)O)C(C)C; Sar = CNCC(=O)O

What was measured:
[1] = test system: VSV-GFP or SeV-GFP; format: cell-based, vesicular stomatitis virus; Sendai virus
[2] = test system: Vero, HepG2, MDCK and other cell lines; settings: cited from earlier work
[3] = test system: VSV-GFP; format: cell-based, vesicular stomatitis virus
[4] = test system: BHK21, BSRT7, HeLa, A549, 4T1, HEp2 and Vero cells
[5] = test system: VSV-GFP; experiment: microbe, parasite or virus in culture; format: cell-based; settings: Vesicular stomatitis virus; for IC50: read-out: IC50 VSV-GFP; for IC90: read-out: IC90 VSV-GFP
[6] = test system: SeV-GFP; experiment: microbe, parasite or virus in culture; format: cell-based, Sendai virus; settings: Respirovirus muris; for IC50: read-out: IC50 SeV-GFP; for IC90: read-out: IC90 SeV-GFP
[7] = test system: canine distemper virus; settings: Vero cells; cited from earlier work
[8] = test system: BHK21, BSRT7, HeLa, A549, 4T1, HEp2 and Vero cells; experiment: Cell viability assays (MTT, CellTiter-Glo, trypan blue dye exclusion); settings: RBV up to 1000 µM, 24 h, all seven cell lines
[9] = test system: SeV-GFP; format: cell-based, Sendai virus
[10] = test system: RBV uptake; format: cell-based
[11] = test system: VSV-GFP or SeV-GFP; format: cell-based, vesicular stomatitis virus; Sendai virus; remark: listed apart in the source

Question: For `Nc1nc2c(ncn2[C@@H]2O[C@H](CO)[C@@H](O)[C@H]2O)c(=O)[nH]1` [guanosine], which “Effect on virus replication when used alone” value [1] is on record?
Answer: The value was “no significant effect on virus replication”.

Question: What about the “Neutralizing effect on antiviral activity of RBV” value [1] of the same compound?
Answer: Its value is “clear (almost 100%) neutralizing effect on RBV”.

Question: What about the “Excess of physiological GTP levels” value [2] of the same compound?
Answer: Its value is “at least 4 fold”.

Question: For `NC(=O)c1ncn([C@@H]2O[C@H](CO)[C@@H](O)[C@H]2O)n1` [RBV, 1-ß-D-ribofuranosyl-1,2,4-triazole-3-carboxamide], which “Effect on VSV replication (GFP expression)” value [3] is on record?
Answer: The value was “effectively inhibited VSV”.

Question: And the “Effect on VSV-driven GFP expression” value [3]?
Answer: Its value is “surprisingly mild effect; also recorded: somewhat intermediate effect”.

Question: And the “Long-term accumulation of RBV” value [4]?
Answer: Its value is “markedly decreased levels of RBV accumulation”.

Question: And the “Short-term RBV uptake” value [4]?
Answer: The value was “somewhat similar levels of RBV import”.

Question: What about the IC50 ([5]; 4T1, 24 h) of the same compound?
Answer: Its IC50 is 20 µM.

Question: What about the IC90 ([5]; 4T1, 24 h) of the same compound?
Answer: Its IC90 is 60 µM.

Question: What about the IC50 ([5]; A549, 24 h) of the same compound?
Answer: The IC50 was 190 µM.

Question: And the IC90 ([5]; A549, 24 h)?
Answer: Its IC90 is 610 µM.

Question: What about the IC50 ([5]; BHK-21, 24 h) of the same compound?
Answer: Its IC50 is 275 µM.

Question: What about the IC90 ([5]; BHK-21, 24 h) of the same compound?
Answer: Its IC90 is 1100 µM.

Question: And the IC50 ([5]; BSR-T7, 24 h)?
Answer: The IC50 was 10 µM.

Question: What about the IC90 ([5]; BSR-T7, 24 h) of the same compound?
Answer: Its IC90 is 40 µM.

Question: What about the IC50 ([5]; HEp-2, 24 h) of the same compound?
Answer: Its IC50 is 70 µM.

Question: And the IC90 ([5]; HEp-2, 24 h)?
Answer: The IC90 was 310 µM.

Question: What about the IC50 ([5]; HeLa, 24 h) of the same compound?
Answer: Its IC50 is 70 µM.

Question: And the IC90 ([5]; HeLa, 24 h)?
Answer: The IC90 was 150 µM.

Question: And the IC50 ([5]; Vero, 24 h)?
Answer: The IC50 was 2250 µM.

Question: And the IC90 ([5]; Vero, 24 h)?
Answer: The IC90 was greater than 3000 µM.

Question: What about the IC50 ([6]; 4T1, 48 h) of the same compound?
Answer: Its IC50 is 10 µM.

Question: And the IC90 ([6]; 4T1, 48 h)?
Answer: Its IC90 is 18 µM.

Question: What about the IC50 ([6]; A549, 48 h) of the same compound?
Answer: Its IC50 is 90 µM.

Question: What about the IC90 ([6]; A549, 48 h) of the same compound?
Answer: The IC90 was 320 µM.

Question: What about the IC50 ([6]; BHK-21, 48 h) of the same compound?
Answer: Its IC50 is 190 µM.

Question: And the IC90 ([6]; BHK-21, 48 h)?
Answer: The IC90 was 850 µM.

Question: And the IC50 ([6]; BSR-T7, 48 h)?
Answer: The IC50 was 16 µM.

Question: What about the IC90 ([6]; BSR-T7, 48 h) of the same compound?
Answer: Its IC90 is 40 µM.

Question: What about the IC50 ([6]; HEp-2, 48 h) of the same compound?
Answer: The IC50 was 12 µM.

Question: What about the IC90 ([6]; HEp-2, 48 h) of the same compound?
Answer: The IC90 was 45 µM.

Question: What about the IC50 ([6]; HeLa, 48 h) of the same compound?
Answer: Its IC50 is 40 µM.

Question: And the IC90 ([6]; HeLa, 48 h)?
Answer: Its IC90 is 110 µM.

Question: And the IC50 ([6]; Vero, 48 h)?
Answer: Its IC50 is 1550 µM.

Question: What about the IC90 ([6]; Vero, 48 h) of the same compound?
Answer: Its IC90 is greater than 3000 µM.

Question: And the IC50 [7]?
Answer: The IC50 was 20 to 50 µM.

Question: And the IC80 [7]?
Answer: Its IC80 is 40 to 110 µM.

Question: What about the “Effect on cell viability (cellular toxicity)” value [8] of the same compound?
Answer: The value was “did not produce any statistically significant decrease in cell viability; also recorded: did not produce any significant cytotoxicity”.

Question: What about the “Effect on SeV replication compared with VSV” value [9] of the same compound?
Answer: Its value is “inhibited SeV replication to a greater degree than VSV”.

Question: Which “Effect on RBV uptake” value [10] does the source give for `Cc1c2oc3c(C)ccc(C(=O)N[C@@H]4C(=O)N[C@H](C(C)C)C(=O)N5CCC[C@H]5C(=O)N(C)CC(=O)N(C)[C@@H](C(C)C)C(=O)O[C@@H]4C)c3nc-2c(C(=O)N[C@@H]2C(=O)N[C@H](C(C)C)C(=O)N3CCC[C@H]3C(=O)N(C)CC(=O)N(C)[C@@H](C(C)C)C(=O)O[C@@H]2C)c(N)c1=O` [ActD, actinomycin D] (I: T[dV]P[Sar][NMeV] / II: T[dV]P[Sar][NMeV]; ester I:1-I:C, II:1-II:C; linker I:N-II:N via Actinocin(9to1)) here?
Answer: Its value is “did not inhibit RBV uptake”.

Question: What about the “Effect on viral replication when used alone” value [11] of the same compound?
Answer: The value was “somewhat mild effect on viral replication”.

Question: And the “Neutralizing effect on antiviral activity of RBV” value [11]?
Answer: Its value is “clear neutralizing effect on RBV”.

Question: Which “Effect on RBV uptake” value [10] does the source give for `O=[N+]([O-])c1ccc(CSc2ncnc3c2ncn3[C@@H]2O[C@H](CO)[C@@H](O)[C@H]2O)cc1` [NBMPR, S-(4-Nitrobenzyl)-6-thioinosine] here?
Answer: Its value is “RBV uptake was inhibited in most cell lines”.
